“Also recorded” adds a separate entry of the source. Where only a bound is given, the exact number is not on record here.

By inhibition is commonly meant the drop in the measured response relative to a control, in per cent. One may read the Kd as the equilibrium constant for the complex coming apart.

One test concerns sperm. Kind of test: Sperm progressive motility. The format is cell-based, mouse. Particulars: for progressive motility of the sperm: 10 μg/ml Annexin V, 50 μg/ml GST or 50 μg/ml GST-BAI1-TSR. How it is done: To evaluate the role of PtdSer exposed on sperm, cumulus oocyte complexes (n=30-60) were inseminated with 2-4×10^4 sperm capacitated for 60-90 min in TYH+BSA (in most of the experiments) or in TYH+MBCD^67 (in the experiment to test the effect of Annexin V in fertilization, FIG. 1K). During the last 30 min of capacitation, sperm were incubated with 10 μg/ml Annexin V (Ebiosciences), 50 μg/ml GST or 50 μg/ml GST-BAI1-TSR. After co-culture of oocytes and sperm in 100 μl drops of high calcium human tubal fluid (HTF) supplemented with 1 mM reduced glutathione (GSH) medium for 4 hours^67, eggs were washed several times and transferred to KSOM medium (EMD Millipore). The percentage of 2-cell embryos (fertilized eggs) was determined at 24 hours post insemination. Sperm motility upon incubation with control medium, Annexin V, GST or GST-BAI1-TSR was graded as progressive motility, non-progressive motility, and immotility, according to the criteria of the 5th Edition of the World Health Organization (WHO) Laboratory Manual for the Examination and Processing of Human Semen. The non-progressive motility and immotility numbers were grouped together. To test the soluble head group of PtdSer, O-Phospho-L-Serine (Sigma) and its control O-Phospho-D-Serine (Sigma) in IVF assays, ˜20 ZP-free oocytes isolated from wt mice were incubated 1×10^3 capacitated sperm in 20-μl droplets for 1 h in the presence of 1 mM O-Phospho-L-Serine or O-Phospho-D-Serine. After washes and an overnight incubation the percentage of 2-cell embryos was evaluated.

Another test concerns RAC1 in ZP-free oocytes. In words: Sperm DNA decondensation assay with RAC1 inhibitor. The format is cell-based, mouse. The note with it: 80 μM, oocytes preincubated 1-2 h, inhibitor present during 1 h insemination. How it is done: To evaluate the role of RAC1, ZP-free oocytes were prepared as described above, loaded with 10 μg/ml DAPI (BioRad) for 20 min at 37° C., 5% CO2, and washed several times in TYH+BSA 3. Twenty oocytes, either untreated or previously incubated with RAC1 inhibitor (80 μM, EHT-1864, Sigma) for 1-2 h were inseminated with 1000 capacitated sperm for 1 h in 20 μl drops of TYH+BSA medium at 37° C., 5% CO2. RAC1 inhibitor was also present the fertilization steps. After 3 washes, oocytes were fixed in 0.25% glutaraldehyde and 0.1% paraformaldehyde for 20 min at room temperature, washed and mounted. The percentage of oocytes with DAPI^+ decondensed sperm nuclei (typically 1-2/oocyte) was evaluated by microscopy.

Another test has as its system C2C12 myoblasts. Kind of test: Sperm:myoblast fusion assay. The format is cell-based, mouse. Particulars: 4 h co-culture; for sperm:myoblast fusion (Calcein-AM+ myoblasts): Calcein-AM labeled sperm, 50 μg/ml GST-BAI1-TSR on sperm, 80 μM EHT-1864, 5 μg/ml Cytochalasin D, 4% PFA; for DiI+ myoblasts (transfer of the dye DiI from the sperm to the myoblasts): DiI-labeled sperm. How it is done:
To stain sperm with the dyes Calcein-AM or DiI, caudal sperm were allowed to swim in TYH+0.75 mM Methyl-beta-cyclodextrin (MBCD)^67 for 15 min, counted and stained with 4 μM Calcein red orange-AM (Invitrogen) for 30 min in PBS at room temperature or with 5 μg/ml DiI (Invitrogen) for 30 min at 37° C. in HBSS, as previously described^60. Cells were washed, counted and resuspended in DMEM medium supplemented with 20% heat inactivated FBS.
Sperm:myoblast fusion experiments. C2C12 murine skeletal muscle myoblasts (ATCC) were maintained at sub-confluent densities in DMEM medium supplemented with 20% heat inactivated FBS at 37° C., 8.5% CO2. Cells were trypsinized, counted and plated in 4-well LabTek II Permanox chamber slides (25,000 cells/well). After 24 h, myoblasts were treated with appropriate buffer alone, or 5 μg/ml Cytochalasin D (Sigma), 80 μM RAC1 inhibitor (EHT-1864), or incubated with Abs (BAI3 [R&D Systems, MAB39651] or CD9 [BD Biosciences]) for 30 min at 37° C., 8.5% CO2 prior to the sperm co-incubation. Alternatively, myoblasts were fixed with 4% PFA for 20 min and washed several times. Calcein-AM+ sperm (250,000 sperm/well) were added and incubated for 4 h at 37° C., 8.5% CO2. The blocking agents were also present during the co-incubation except for Cytochalasin D, which was used only during the preincubation to avoid affecting the sperm. Sperm were pretreated with 50 μg/ml GST or 50 μg/ml GST-BAI1-TSR for 30 min and then added to the myoblasts. C2C12 myoblasts with shRNA-mediated Elmo2 knockdown have been described previously^25. After the 4 h co-incubation, myoblasts were washed, stained with Hoechst and mounted. Cells were analyzed the same day and 6-8 fields/well were photographed using the Axio Imager 2 with Apotome (Zeiss). Image J cell counter plugin software was used to quantitate nuclei number. The fusion index was calculated as the percentage of Calcein AM^+ myoblasts in the experimental group normalized to the control untreated cells.

The subject of a further test is ZP-free oocytes. In words: In vitro fertilization assay, competition with soluble head group of PtdSer. Particulars: 1 mM, ZP-free oocytes with capacitated sperm for 1 h, 2-cell embryos after overnight incubation. The format is cell-based, mouse. How it is done:
In vitro fertilization (IVF) assays. IVF was performed as previously described^68. Briefly, 4-5 week old female mice were super-ovulated by intraperitoneal injections of 5 IU of pregnant mare serum gonadotropin (PMSG, Prospec) and 5 IU of human chorionic gonadotropin (hCG, Sigma) 48 hours (h) later. Metaphase II oocytes were recovered 13 h after hCG, and were: 1) directly used as cumulus oocyte complexes (COC), 2) freed from cumulus cells by a brief incubation with 3 mg/ml hyaluronidase (Sigma) in 0.01% poly vinyl alcohol (PVA)/FHM medium (EMD Millipore). These oocytes were labeled as Zona pellucida (ZP)-intact oocytes; or 3) freed from cumulus cells and ZP using Tyrode's solution (Sigma) (ZP-free oocytes). Sperm were collected from the cauda epididymides of adult (>10 week-old) wild-type male mice and capacitated for 90 min in TYH+BSA medium (described above, Sperm staining section). All the incubations were performed in medium drops under paraffin oil (Sigma) at 37° C., 5% CO2 atmosphere. To evaluate the role of PtdSer exposed on sperm, cumulus oocyte complexes (n=30-60) were inseminated with 2-4×10^4 sperm capacitated for 60-90 min in TYH+BSA (in most of the experiments) or in TYH+MBCD^67 (in the experiment to test the effect of Annexin V in fertilization, FIG. 1K). During the last 30 min of capacitation, sperm were incubated with 10 μg/ml Annexin V (Ebiosciences), 50 μg/ml GST or 50 μg/ml GST-BAI1-TSR. After co-culture of oocytes and sperm in 100 μl drops of high calcium human tubal fluid (HTF) supplemented with 1 mM reduced glutathione (GSH) medium for 4 hours^67, eggs were washed several times and transferred to KSOM medium (EMD Millipore). The percentage of 2-cell embryos (fertilized eggs) was determined at 24 hours post insemination. […] After washes and an overnight incubation the percentage of 2-cell embryos was evaluated.

For test [1] the following is noted: annexin V for PS; cited from earlier work.
A further test has as its system PtdSer exposed on sperm. Kind of test: In vitro fertilization assay, masking PtdSer on sperm. The format is cell-based, mouse. Particulars: 2-cell embryos at 24 h. As for the experimental part:
In vitro fertilization (IVF) assays. IVF was performed as previously described^68. Briefly, 4-5 week old female mice were super-ovulated by intraperitoneal injections of 5 IU of pregnant mare serum gonadotropin (PMSG, Prospec) and 5 IU of human chorionic gonadotropin (hCG, Sigma) 48 hours (h) later. Metaphase II oocytes were recovered 13 h after hCG, and were: 1) directly used as cumulus oocyte complexes (COC), 2) freed from cumulus cells by a brief incubation with 3 mg/ml hyaluronidase (Sigma) in 0.01% poly vinyl alcohol (PVA)/FHM medium (EMD Millipore). These oocytes were labeled as Zona pellucida (ZP)-intact oocytes; or 3) freed from cumulus cells and ZP using Tyrode's solution (Sigma) (ZP-free oocytes). Sperm were collected from the cauda epididymides of adult (>10 week-old) wild-type male mice and capacitated for 90 min in TYH+BSA medium (described above, Sperm staining section). […]
To evaluate the role of PtdSer exposed on sperm, cumulus oocyte complexes (n=30-60) were inseminated with 2-4×10^4 sperm capacitated for 60-90 min in TYH+BSA (in most of the experiments) or in TYH+MBCD^67 (in the experiment to test the effect of Annexin V in fertilization, FIG. 1K). […] The percentage of 2-cell embryos (fertilized eggs) was determined at 24 hours post insemination. […] After washes and an overnight incubation the percentage of 2-cell embryos was evaluated.

The subject of test [2] is ZP-free wild-type oocytes. In words: Binding of 2 μm carboxylate modified beads to oocytes. In kind it is cell-based, mouse. The note with it: beads pretreated with 50 μg/ml GST-BAI1-TSR for 30 min; oocytes with >5 bound beads scored. As for the experimental part: The presence of functional PtdSer receptors on mouse ZP-free wild-type oocytes was evaluated by incubation with 2 μm carboxylate modified red (580/605) beads (1:400, Invitrogen, FluoSpheres) for 2 h in TYH+BSA at 37° C., 5% CO2. Beads were pre-treated with medium only, 50 μg/ml GST or 50 μg/ml GST-BAI1-TSR for 30 min. Oocytes were washed 6 times in TYH+BSA, stained with CD9 antibody for 30 min at 37° C., 5% CO2 in TYH+BSA, fixed in 4% PFA+1% BSA and stained with Hoechst. The percentage of oocytes with bound beads was determined by microscopy. We scored oocytes with >5 bound beads, since accurately counting individual beads, particularly in oocytes of the control groups that bound multiple beads was unfeasible.

In the case of `O=c1cc(CN2CCOCC2)occ1OCCCCCSc1ccnc2cc(C(F)(F)F)ccc12` [EHT-1864, reference compound], the sperm motility entry in the test on sperm (sperm incubated with EHT-1864 alone under the assay conditions) was “no reduction in the motility”. In addition, the “number of oocytes with decondensed sperm DNA” value in the test with RAC1 in ZP-free oocytes is reported as “significant reduction”. In the test with C2C12 myoblasts, the “sperm:myoblast fusion (Calcein-AM+ myoblasts)” value is “potently blocked” and the “DiI+ myoblasts (transfer of the dye DiI from the sperm to the myoblasts)” value is “blocked”.
For `N[C@H](COP(=O)(O)O)C(=O)O` [Phospho-D-Serine, O-Phospho-D-Serine], the “effect on fertilization (2-cell embryos)” value with ZP-free oocytes was “did not inhibit fertilization”.
Take `N[C@@H](COP(=O)(O)O)C(=O)O` [Phospho-L-Serine, O-Phospho-L-Serine]: in the test with ZP-free oocytes, the “effect on fertilization (2-cell embryos)” value is on record as “significant reduction in fertilization”. The inhibition at 1000 µM in the test with ZP-free oocytes (Mus musculus, Oocyte, read-out: partial inhibition of fertilization) was in the range of 30 to 40%.
For the compound `C=C1[C@@H](C)[C@H]2[C@H](Cc3ccccc3)NC(=O)[C@]23[C@H](OC(C)=O)/C=C/[C@@](C)(O)C(=O)[C@@H](C)C/C=C/[C@H]3[C@@H]1O` [cytochalasin D, reference compound], the “sperm:myoblast fusion (Calcein-AM+ myoblasts)” value in the test with C2C12 myoblasts is “abrogated”.
For “Annexin V: PtdSer-binding protein reagent (Ebiosciences) used to mask PtdSer on sperm; highest affinity of the three blocking agents”, the “progressive motility of the sperm” value in the test on sperm is “not affected; also recorded: No significant differences”. Moreover, in test [1], the dissociation constant Kd was 6.6 nM. Besides, in the test with PtdSer exposed on sperm (10 μg/ml Annexin V on capacitated caudal sperm, in three out of four independent experiments), the reduction in fertilization is recorded as more than 85%.
Take “BAI1-TSR: soluble extracellular fragment of the PtdSer recognition receptor BAI1 (residues 202-585) fused to glutathione-S-transferase; SEQ ID NOs: 1 and 2”: the figures for the “progressive motility of the sperm” value with sperm and in the test with sperm (listed as GST-BAI1-TSR) were “not affected” and “No significant differences”, respectively. In addition, in the test on C2C12 myoblasts, the “sperm:myoblast fusion (Calcein-AM+ myoblasts)” value is “significantly decreased the fusion”. Further, in test [2], the “binding of carboxylate modified beads to oocytes” value is given as “significantly decreased”. Also, the “effect on fertilization (2-cell embryos)” value with PtdSer exposed on sperm (sperm incubated with 50 μg/ml GST-BAI1-TSR) is reported as “significantly reduced fertilization”.
As for “GST: glutathione-S-transferase control protein, SEQ ID NO: 1 [reference compound]”, in the test on sperm, the “progressive motility of the sperm” value was “No significant differences”.
On to paraformaldehyde, for which, in the test on C2C12 myoblasts, the “sperm:myoblast fusion (Calcein-AM+ myoblasts)” value is recorded as “abrogated” and the “DiI+ myoblasts (transfer of the dye DiI from the sperm to the myoblasts)” value is reported as “blocked”.

These data come from patent US20220381790A1, “SELECTION AND BLOCKADE OF FERTILIZATION COMPETENT MALE AND FEMALE GAMETES” (University of Virginia Patent Foundation, priority 2019, published 2022).
